From BindingDB's records for doi:10.1021/jm401801t (University of Geneva, 2014)

Columns and labels:
[1] = Inhibition of human HSP90beta expressed in yeast assessed as growth inhibition of host after 72 hrs
[2] = Inhibition of human HSP90alpha expressed in yeast assessed as growth inhibition of host after 72 hrs

IC50 [1]: 120 µM
IC50 [2]: 308 µM
Compound: COCC(=O)Nc1c(C(=O)OC)n(CCC(C)C)c2ncc(NC(C)CCC=C(C)C)cc12 (configuration not stated)
